According to PubChem BioAssay (NCI):
Several values for one entry are separate records, joined by “and”; a condition that tells them apart may be missing. Identical values can stand only once.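 Where inhibition never reached the appropriate level, the endpoint shown equals the highest concentration tested. Otherwise, values were interpolated linearly from a five-concentration, 48-hour dose response in 96-well plates. GI50 marks 50% less growth. At the TGI there is no net growth.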

Columns and labels:
Assay in all cases: inhibition of tumour cell growth, NCI panel, 48 h
[1] = tested on: M14 melanoma
[2] = tested on: HL-60(TB) leukemia
[3] = tested on: SN12C renal
[4] = tested on: SK-MEL-2 melanoma
[5] = tested on: KM12 colon
[6] = tested on: CAKI-1 renal
[7] = tested on: SK-OV-3 ovarian
[8] = tested on: ACHN renal
[9] = tested on: NCI-H522 lung
[10] = tested on: OVCAR-3 ovarian

Row | Compound | TGI [1] | TGI [2] | TGI [3] | TGI [4] | TGI [5] | TGI [6] | TGI [7] | TGI [8] | TGI [9] | TGI [10] | GI50 [1] | GI50 [2] | GI50 [4] | GI50 [5] | GI50 [8] | GI50 [9] | GI50 [10] | GI50 [3] | GI50 [6] | GI50 [7]
1 | O=CN/C=C/c1cc(O)ccc1O | 32.8 µM | 13.2 µM | 31.3 µM | > 71.9 µM | > 100 µM | 25.8 µM | > 90.5 µM | 28.9 µM | 11.2 µM | 22.5 µM |  |  |  |  |  |  |  |  |  | 
2 | Cc1coc2c1CC1(C)C(CCC(O)C1C)C2 (configuration not stated) | > 100 µM | > 100 µM | > 100 µM | > 100 µM | > 100 µM | > 100 µM | > 100 µM | > 100 µM | > 100 µM | > 100 µM |  |  |  |  |  |  |  |  |  | 
3 | CN(C)CC[N+]1=Nc2cccc3cccc(c23)N1 | > 100 µM | > 60.1 µM | > 100 µM | > 100 µM | > 100 µM | > 100 µM | > 100 µM | > 100 µM | > 95.7 µM | > 100 µM |  |  |  |  |  |  |  |  |  | 
4 | CCOC(=O)[C@]1(OC(C)=O)C[C@H](OC(C)=O)[C@@H](C(F)COP(=O)(OCc2ccccc2)OCc2ccccc2)O1 (some centres not stated) | > 100 µM | 86.6 µM and > 100 µM | > 100 µM | 78.4 µM and > 100 µM | 41.2 µM and > 100 µM | > 100 µM | > 100 µM | > 100 µM | 93.7 µM and > 100 µM | 79.4 µM and > 100 µM | 49.4 µM and > 100 µM | 31.9 µM and > 100 µM | 25 µM and > 100 µM | 19.3 µM and > 100 µM | 34.8 µM and > 100 µM | 28.3 µM and > 100 µM | 29.6 µM and > 100 µM |  |  | 
5 | CC1(c2ccc(F)cc2)C(C#N)C(=O)NC(=O)C1C#N (configuration not stated) | > 100 µM | > 100 µM | > 100 µM | > 100 µM | > 100 µM | > 100 µM | > 100 µM | > 100 µM | > 100 µM | > 100 µM |  |  |  |  |  |  |  |  |  | 
6 | COC(=O)CC1CCN(C#N)CC1CC[N+](=O)[O-] (configuration not stated) | > 100 µM | > 100 µM | > 100 µM | > 100 µM | > 100 µM | > 100 µM | > 100 µM | > 100 µM | > 100 µM | > 100 µM |  |  |  |  |  |  |  |  |  | 
7 | OCc1ccc(N2CCC2c2ccc(F)cc2)cc1Cl (configuration not stated) | > 79.4 µM | 51.8 µM | > 63.8 µM | 29.3 µM | > 66.4 µM | > 57.1 µM | > 89.1 µM | > 100 µM | 55.9 µM | 13.8 µM | 32.7 µM | 18.5 µM | 11.4 µM | 24.3 µM | 30.8 µM | 20.9 µM | 2.34 µM | 18.2 µM | 12.9 µM | 20.5 µM
8 | NC(=O)c1sc(-n2cnc3ccccc32)cc1OCc1ccccc1Br | > 25 µM | > 25 µM | > 25 µM | > 25 µM | > 25 µM | > 25 µM | > 25 µM | > 25 µM | 12.7 µM | 17.6 µM | 5.71 µM | 1.28 µM | 6.43 µM | 1.26 µM | 15.8 µM | 3.99 µM | 1.55 µM | 14.2 µM | 14.2 µM | 6.94 µM
9 | O=C(O)CSc1ccc([N+](=O)[O-])cc1[N+](=O)[O-] | > 100 µM | > 100 µM | > 100 µM | > 100 µM | > 100 µM | > 100 µM | > 100 µM | > 100 µM | > 100 µM | > 100 µM |  |  |  |  |  |  |  |  |  | 
10 | C#Cc1ccc(-n2c(/C=C/c3ccc(C(F)(F)F)cc3)nc3ncccc3c2=O)cc1 | 4.27 µM | 6.07 µM | 5.63 µM | 4.09 µM | 3.44 µM | 6.22 µM | 13.4 µM | 3.26 µM | 3.08 µM | 3.17 µM | 2.07 µM | 2.07 µM | 2.03 µM | 1.79 µM | 1.71 µM | 1.65 µM | 1.67 µM | 2.08 µM | 2.26 µM | 3.61 µM
11 | O=C(Nc1ccccc1OC(F)(F)F)Nc1n[nH]c2ccccc12 | > 100 µM | > 100 µM | > 100 µM | > 100 µM | > 100 µM | > 100 µM | > 100 µM | > 100 µM | > 100 µM | > 100 µM | 25.5 µM | 17.9 µM | 81.4 µM | 23.4 µM | 31.1 µM | 33.9 µM | 90.8 µM | 72.5 µM | 31 µM | > 100 µM
12 | COc1cc(Cc2cnc(/N=C3\C(=O)N(CN4CCN(c5c(F)cc6c(=O)c(C(=O)O)cn(C7CC7)c6c5OC)CC4C)c4ccc(F)cc43)nc2N)cc(OC)c1OC (configuration not stated) | 22 µM | > 100 µM | 31.1 µM | > 100 µM | 35.9 µM | 36 µM | 43.1 µM | 14.6 µM | > 100 µM | 22.1 µM | 10.3 µM | 3.28 µM | 37.8 µM | 13.7 µM | 1.72 µM | 63.5 µM | 5.87 µM | 15.6 µM | 15.5 µM | 15 µM
13 | COC1(OC)CCC2C1C1CCC(OC)(OC)C21 (configuration not stated) | > 50 µM | > 50 µM | > 50 µM | > 50 µM | > 50 µM | > 50 µM | > 50 µM | > 50 µM | > 50 µM | > 50 µM |  |  |  |  |  |  |  |  |  | 
14 | Cn1cnc([N+](=O)[O-])c1Sc1nnc(-c2cccnc2)n1C | 35.4 µM | 21.1 µM | 60.5 µM | 46.1 µM | > 100 µM | 42.7 µM | > 100 µM | 36.7 µM | 15.2 µM | 35.1 µM |  |  |  |  |  |  |  |  |  | 
15 | O=C(/C=C/c1ccccc1)NC1C=Nc2ccc(Cl)cc2NC1=O (configuration not stated) | 65.6 µM | 30.3 µM | > 100 µM | > 100 µM | 56.8 µM | > 100 µM | > 100 µM | > 100 µM | 34.6 µM | 56.4 µM |  |  |  |  |  |  |  |  |  | 
16 | CCCCC(=O)OCC(=O)[C@]1(O)Cc2c(O)c3c(c(O)c2[C@@H](OC2CC(NC(=O)C(F)(F)F)C(O)C(C)O2)C1)C(=O)c1c(OC)cccc1C3=O (some centres not stated) | 8.62 µM | 6.41 µM | 3.91 µM | 6.01 µM | > 70.8 µM | 2.63 µM | 1.73 µM | 3.04 µM | 3.9 µM | 20.1 µM |  |  |  |  |  |  |  |  |  | 
17 | O=C1C=C(Cl)C(=O)C(c2ccc(Cl)cc2)=C1 | 32.2 µM | 42.8 µM | 44.4 µM | 44.3 µM | > 100 µM | 35.1 µM | > 100 µM | 30.3 µM | 47.4 µM | 34.3 µM |  |  |  |  |  |  |  |  |  | 
18 | O=C1C(=O)N(c2ccc(Cl)cc2Cl)C(=O)C(=O)C1c1nc2ccccc2s1 | > 100 µM | 67.1 µM | > 100 µM | > 100 µM | > 100 µM | > 100 µM | > 100 µM | > 100 µM | > 57.2 µM | > 100 µM |  |  |  |  |  |  |  |  |  | 
19 | CN1C(=O)C(C)(C)C2(SC(C)(C)C2(C)C)N(C)C1=S (configuration not stated) | > 100 µM | > 100 µM | > 100 µM | > 100 µM | > 100 µM | > 100 µM | > 100 µM | > 100 µM | > 100 µM | > 100 µM |  |  |  |  |  |  |  |  |  | 
20 | N#CC(c1ccc(Cl)cc1)c1cccc(C(C#N)c2ccc(Cl)cc2)n1 (configuration not stated) | > 100 µM | > 100 µM | > 100 µM | 83.2 µM | > 100 µM | > 100 µM | > 100 µM | > 100 µM | > 100 µM | > 100 µM |  |  |  |  |  |  |  |  |  | 
21 | NC(=O)c1cccc2cn(-c3ccc([C@@H]4CCCNC4)cc3)nc12 | 26.3 µM | 34.6 µM | 56.8 µM | 39.3 µM | 30.6 µM | 20.2 µM | 38.2 µM | 25.9 µM | 55.6 µM | 31.6 µM | 10.7 µM | 15.7 µM | 19.7 µM | 15.7 µM | 12.4 µM | 20.4 µM | 14.8 µM | 9.15 µM | 5.77 µM | 12.6 µM
22 | COC1CCC2C(NS(=O)(=O)c3ccc(C)cc3)CCCC2O1 (configuration not stated) (tested in a mixture with another compound) | > 34.5 µM | 18.5 µM | > 34.5 µM | > 34.5 µM | > 34.5 µM | > 34.5 µM | > 34.5 µM | > 34.5 µM | 31.5 µM | > 34.5 µM |  |  |  |  |  |  |  |  |  | 
23 | CCOc1ccc(NC(=O)C(=O)CC(=O)c2c[n+](=O)c3cc(C)c(C)cc3n2[O-])cc1 | > 100 µM | > 100 µM | > 100 µM | > 100 µM | > 100 µM | > 100 µM | > 100 µM | > 100 µM | > 100 µM | > 100 µM |  |  |  |  |  |  |  |  |  | 
24 | O=C(CC1(O)C(=O)Nc2c(Cl)cc(Cl)cc21)c1ccc(Br)cc1Br (configuration not stated) | 18.5 µM | 18.1 µM | 28.5 µM | 28.9 µM | 27.9 µM | 16.2 µM | 44.2 µM | 27.1 µM | 8.05 µM | 43.8 µM |  |  |  |  |  |  |  |  |  | 
25 | CC12CCC(O)CC1CCC1C2CCC2(C)C(C3=CC(=O)OC3)CCC12O (configuration not stated) | 19 µM | 8.36 µM | 4.72 µM | 22.7 µM | > 43.3 µM | > 19.8 µM | 18.5 µM | 10.3 µM | 4.9 µM | 10.3 µM |  |  |  |  |  |  |  |  |  | 
26 | CCCCCCCCCCCOc1ccc(C(=O)C(=O)c2ccc(OCCCCCCCCCCC)c(OCCCCCCCCCCC)c2)cc1OCCCCCCCCCCC | > 100 µM | > 100 µM | > 100 µM | > 100 µM | > 100 µM | > 100 µM | > 100 µM | > 100 µM | > 100 µM | > 100 µM |  |  |  |  |  |  |  |  |  | 
